Test: Oral pharmacokinetic profile of CBD and THC complexes in rats (plasma concentration by GC-MS/MS)
Conditions: per os single gavage, fasted male rats

| Structure (SMILES) | THC average circulating levels in plasma (20 mg/kg THC-based dose) | CBD Cmax (average) (20 mg/kg CBD-based dose, plasma) [ng/mL] |
| --- | --- | --- |
| CCCCCc1cc(O)c2c(c1)OC(C)(C)[C@@H]1CCC(C)=C[C@@H]21 [pure THC, tetrahydrocannabinol] | mostly below the limit of quantitation |  |
| C=C(C)[C@@H]1CCC(C)=C[C@H]1c1c(O)cc(CCCCC)cc1O [CBD, cannabidiol] |  | 12.7 |

Source: patent US20230010871A1, “COMPLEXES COMPRISING A CA[…] AND AN ACTIVE INGREDIENT AND PROCESSES FOR THEIR PREPARATION” (FOLIUM LABS INC., priority 2019, published 2023)
